The source of these data is patent publication US20140275060A1, “COMPOUNDS FOR THE TREATMENT OF NEUROLOGIC DISORDERS” (priority 2013, published 2014).

The target in the experiment is GluN1/GluN2B Receptors (Rattus norvegicus, UniProt P35439+Q00960). The experiment is described as follows: Two-electrode voltage-clamp IC50 determination at GluN1/GluN2B receptors expressed in Xenopus oocytes. Format: cell-based, Human or Rat. On the procedure:
Determination of IC50 Values of GluN1/GluN2B Receptors Expressed in Xenopus oocytes in Human or Rat Stage V and VI oocytes were surgically removed from the ovaries of large, well-fed and healthy Xenopus laevis anesthetized with 3-amino-benzoic acid ethyl ester (3 gm/l). Oocytes were injected within 24 hrs of isolation with 3-5 ng of GluN1 subunit cRNA and 7-10 ng of GluN2 cRNA subunit in a 50 nl volume, and incubated in Barth's solution at 18° C. for 2-7 d. Glass injection pipettes had tip sizes ranging from 10-20 microns, and were backfilled with mineral oil. Two electrode voltage-clamp recordings were made 2-7 days post-injection. Oocytes were placed in a dual-track plexiglass recording chamber and dual recordings were made at room temperature (23° C.) using two Warner OC725C two-electrode voltage clamp amplifiers, arranged as recommended by the manufacturer. Glass microelectrodes (1-10 Megaohms) were filled with 300 mM KCl (voltage electrode) or 3 M KCl (current electrode). The bath clamps communicated across silver chloride wires placed into each side of the recording chamber, both were assumed to be at a reference potential of 0 mV. Oocytes were perfused with a solution comprised of (in mM) 90 NaCl, 1 KCl, 10 HEPES, 10 EDTA and 0.5 BaCl2; pH was adjusted by addition of 1-3 M NaOH or HCl. Oocytes were recorded under voltage clamp at −40 mV. Final concentrations for glutamate and glycine were 50 μM and 30 μM, respectively. Concentration-response curves for experimental compounds were obtained by applying maximal glutamate/glycine, followed by glutamate/glycine plus variable concentrations of experimental compounds. Dose response curves consisting of 4 to 6 concentrations were obtained in this manner. The baseline leak current at −40 mV was measured before and after recording, and the full recording linearly corrected for any change in leak current. The level of inhibition by applied experimental compounds measured after a 6 min exposure to a compound was expressed as a percent of the initial glutamate response, and averaged together across oocytes from multiple experiments. Results were pooled, and the average percent responses at antagonist concentrations were fit by the equation, Percent Response=(100−minimum)/(1+([conc]/IC50)^nH)+minimum where minimum is the residual percent response in saturating concentration of the experimental compounds, IC50 is the concentration of antagonist that causes half of the achievable inhibition, and nH is a slope factor describing steepness of the inhibition curve. Minimum was constrained to be between zero and 20. Recordings were made at pH 6.9, pH 7.4, and pH 7.6.

Chain of GluN1/GluN2B Receptors (Q00960 27-1482, other chains not shown): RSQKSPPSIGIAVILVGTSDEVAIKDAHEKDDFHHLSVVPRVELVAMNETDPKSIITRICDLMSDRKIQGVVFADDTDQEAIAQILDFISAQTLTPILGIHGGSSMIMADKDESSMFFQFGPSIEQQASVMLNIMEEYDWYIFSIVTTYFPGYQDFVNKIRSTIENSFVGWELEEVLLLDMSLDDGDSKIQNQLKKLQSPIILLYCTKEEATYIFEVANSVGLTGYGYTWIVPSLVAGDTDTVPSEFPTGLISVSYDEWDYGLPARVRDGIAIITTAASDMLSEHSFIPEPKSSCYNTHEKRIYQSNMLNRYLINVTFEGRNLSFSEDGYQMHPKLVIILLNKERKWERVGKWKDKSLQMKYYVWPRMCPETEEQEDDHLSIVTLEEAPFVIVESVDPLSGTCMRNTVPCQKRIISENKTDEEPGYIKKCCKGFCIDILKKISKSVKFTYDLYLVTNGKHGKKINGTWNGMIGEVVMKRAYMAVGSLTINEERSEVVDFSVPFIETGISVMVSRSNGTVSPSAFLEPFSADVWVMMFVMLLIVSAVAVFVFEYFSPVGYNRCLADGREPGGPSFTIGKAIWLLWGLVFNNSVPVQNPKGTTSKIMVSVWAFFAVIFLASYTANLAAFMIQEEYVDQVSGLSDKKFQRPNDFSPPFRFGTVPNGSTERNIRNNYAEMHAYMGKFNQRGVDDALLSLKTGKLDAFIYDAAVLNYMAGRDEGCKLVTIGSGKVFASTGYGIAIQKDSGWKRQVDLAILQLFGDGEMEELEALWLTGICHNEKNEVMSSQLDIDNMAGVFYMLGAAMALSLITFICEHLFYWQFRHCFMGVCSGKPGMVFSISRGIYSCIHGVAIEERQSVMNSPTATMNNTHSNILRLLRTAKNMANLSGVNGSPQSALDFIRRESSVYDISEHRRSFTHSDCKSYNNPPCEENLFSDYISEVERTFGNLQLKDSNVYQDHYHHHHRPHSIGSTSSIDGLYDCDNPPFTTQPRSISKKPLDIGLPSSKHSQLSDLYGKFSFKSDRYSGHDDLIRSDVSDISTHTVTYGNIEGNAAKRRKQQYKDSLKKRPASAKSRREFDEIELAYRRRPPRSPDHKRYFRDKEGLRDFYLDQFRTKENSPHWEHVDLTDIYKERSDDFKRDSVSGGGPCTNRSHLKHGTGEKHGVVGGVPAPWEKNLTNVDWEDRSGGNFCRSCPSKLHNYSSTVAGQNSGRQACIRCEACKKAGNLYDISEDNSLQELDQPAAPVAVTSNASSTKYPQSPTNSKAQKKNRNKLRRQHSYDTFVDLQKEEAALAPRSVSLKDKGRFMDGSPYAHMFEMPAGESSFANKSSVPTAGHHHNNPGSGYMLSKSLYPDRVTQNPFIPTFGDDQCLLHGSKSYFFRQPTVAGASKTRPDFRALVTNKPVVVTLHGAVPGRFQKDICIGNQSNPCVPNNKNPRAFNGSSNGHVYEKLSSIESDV

As to `CCCc1ccc(N2CCN(CC(O)C=Cc3ccc4[nH]c(=O)ccc4c3)CC2)cc1` (racemic) [Compound 10, (rac-)(E)-6-(3-hydroxy-4-(4-(4-propylphenyl)piperazin-1-yl)but-1-en-1-yl)quinolin-2(1H)-one], the “nH (slope factor of the inhibition curve)” value (pH 6.9) was −0.90 and the “nH (slope factor of the inhibition curve)” value (pH 7.6) is reported as −1.24.
On the same counts, the results for `O=C1CCc2cc(/C=C/C(O)CN3CCN(c4ccc(Cl)cc4)CC3)ccc2N1` (racemic) [Compound 21, (rac)-(E)-6-(4-(4-(4-Chlorophenyl)piperazin-1-yl)-3-hydroxybut-1-en-1-yl)-3,4-dihydroquinolin-2(1H)-one] are −0.81 and −1.28.
The matching figures for `O=C1CCc2cc(/C=C/C(CO)N3CCN(c4ccc(Cl)cc4)CC3)ccc2N1` (racemic) [Compound 23, (rac)-(E)-6-(3-(4-(4-chlorophenyl)piperazin-1-yl)-4-hydroxybut-1-en-1-yl)-3,4-dihydroquinolin-2(1H)-one]: −1.09 and −0.60.
On the same counts, the results for `CCCc1ccc(N2CCN(C[C@@H](O)/C=C/c3ccc4[nH]c(=O)ccc4c3)CC2)cc1` [Compound 11, (S,E)-6-(3-hydroxy-4-(4-(4-propylphenyl)piperazin-1-yl)but-1-en-1-yl)quinolin-2(1H)-one] are −0.87 and −0.52.
`O=c1ccc2cc(/C=C/[C@H](O)CN3CCN(c4ccc(C5CC5)cc4)CC3)ccc2[nH]1` [Compound 13, (S,E)-6-(4-(4-(4-cyclopropylphenyl)piperazin-1-yl)-3-hydroxybut-1-en-1-yl)quinolin-2(1H)-one]: the “nH (slope factor of the inhibition curve)” value is −0.81 (pH 6.9) and −0.80 (pH 7.6).
The matching figures for `O=C1COc2cc(/C=C/[C@@H](O)CN3CCN(c4ccc(C(F)(F)F)cc4)CC3)ccc2N1` [Compound 15, (R,E)-7-(3-hydroxy-4-(4-(4-(trifluoromethyl)phenyl)piperazin-1-yl)but-1-en-1-yl)-2H-benzo[b][1,4]oxazin-3(4H)-one]: −0.88 and −1.04.
On the same counts, the results for `O=C1COc2cc(/C=C/[C@H](O)CN3CCN(c4ccc(C(F)(F)F)cc4)CC3)ccc2N1` [Compound 16, (S,E)-7-(3-hydroxy-4-(4-(4-(trifluoromethyl)phenyl)piperazin-1-yl)but-1-en-1-yl)-2H-benzo[b][1,4]oxazin-3(4H)-one] are −0.67 and −1.29.
On the same counts, the results for `O=C1NCc2cc(/C=C/[C@@H](O)CN3CCN(c4ccc(C5CC5)cc4)CC3)ccc2N1` [Compound 18, (R,E)-6-(4-(4-(4-cyclopropylphenyl)piperazin-1-yl)-3-hydroxybut-1-en-1-yl)-3,4-dihydroquinazolin-2(1H)-one] are −0.78 and −1.28.
Turning to `CC(C)c1ccc(N2CCN(C[C@@H](O)/C=C/c3ccc4c(c3)CCC(=O)N4)CC2)cc1` [Compound 25, (S,E)-6-(3-Hydroxy-4-(4-(4-isopropylphenyl)piperazin-1-yl)but-1-en-1-yl)-3,4-dihydroquinolin-2(1H)-one], the “nH (slope factor of the inhibition curve)” value (pH 6.9) is −0.61 and the “nH (slope factor of the inhibition curve)” value (pH 7.6) is −1.22.
As for `O=C1CCc2cc(/C=C/[C@H](O)CN3CCN(c4ccc(Cl)cc4)CC3)ccc2N1` [Compound 27, (S,E)-6-(4-(4-(4-Chlorophenyl)piperazin-1-yl)-3-hydroxybut-1-en-1-yl)-3,4-dihydro-quinolin-2(1H)-one], the “nH (slope factor of the inhibition curve)” value (pH 6.9) is reported as −0.95 and the “nH (slope factor of the inhibition curve)” value (pH 7.6) was −0.64.
On the same counts, the results for `CC(C)c1ccc(N2CCN(C[C@H](O)/C=C/c3ccc4c(c3)CCC(=O)N4)CC2)cc1` [Compound 29, (R,E)-6-(3-Hydroxy-4-(4-(4-isopropylphenyl)piperazin-1-yl)but-1-en-1-yl)-3,4-dihydroquinolin-2(1H)-one] are −0.54 and −1.31.
Turning to `O=C1CCc2cc(/C=C/[C@@H](O)CN3CCN(c4ccc(Cl)cc4)CC3)ccc2N1` [Compound 31, (R,E)-6-(4-(4-(4-Chlorophenyl)piperazin-1-yl)-3-hydroxybut-1-en-1-yl)-3,4-dihydroquinolin-2(1H)-one], the “nH (slope factor of the inhibition curve)” value reads like this: (pH 6.9) −0.64; (pH 7.6) −0.90.
On the same counts, the results for `O=C1CCc2cc(/C=C/[C@H](O)CN3CCN(c4ccc(C(F)(F)F)cc4)CC3)ccc2N1` [Compound 33, (S,E)-6-(3-Hydroxy-4-(4-(4-(trifluoromethyl)phenyl)piperazin-1-yl)but-1-en-1-yl)-3,4-dihydroquinolin-2(1H)-one] are −0.56 and −0.65.
The matching figures for `O=C1CCc2cc(/C=C/[C@@H](O)CN3CCN(c4ccc(C(F)(F)F)cc4)CC3)ccc2N1` [Compound 35, (R,E)-6-(3-Hydroxy-4-(4-(4-(trifluoromethyl)phenyl)piperazin-1-yl)but-1-en-1-yl)-3,4-dihydroquinolin-2(1H)-one]: −0.68 and −0.75.
The matching figures for `CC(C)c1ccc(N2CCN(C[C@@H](O)/C=C/c3ccc(NC(N)=O)cc3)CC2)cc1` [Compound 36, (S,E)-1-(4-(3-Hydroxy-4-(4-(4-isopropylphenyl)piperazin-1-yl)but-1-en-1-yl)phenyl)urea]: −0.82 and −1.05.
As to `NC(=O)Nc1ccc(/C=C/[C@@H](O)CN2CCN(c3ccc(C(F)(F)F)cc3)CC2)cc1` [Compound 38, (R,E)-1-(4-(3-Hydroxy-4-(4-(4-(trifluoromethyl)phenyl)piperazin-1-yl)but-1-en-1-yl)phenyl)urea], the “nH (slope factor of the inhibition curve)” value was −0.64 (pH 6.9) and −0.69 (pH 7.6).
On the same counts, the results for `NC(=O)Nc1ccc(/C=C/[C@H](O)CN2CCN(c3ccc(C(F)(F)F)cc3)CC2)cc1` [Compound 39, (S,E)-1-(4-(3-Hydroxy-4-(4-(4-(trifluoromethyl)phenyl)piperazin-1-yl)but-1-en-1-yl)phenyl)urea] are −0.43 and −0.69.
Turning to `O=C1NCc2cc(/C=C/[C@@H](O)CN3CCN(c4ccc(C(F)(F)F)cc4)CC3)ccc2N1` [Compound 41, (R,E)-6-(3-hydroxy-4-(4-(4-(trifluoromethyl)phenyl)piperazin-1-yl)but-1-en-1-yl)-3,4-dihydroquinazolin-2(1H)-one], the “nH (slope factor of the inhibition curve)” value was −0.64 (pH 6.9) and −1.04 (pH 7.6).
In the case of `O=C1CCc2cc(/C=C/[C@@H](CO)N3CCN(c4ccc(C(F)(F)F)cc4)CC3)ccc2N1` [Compound 43, (S,E)-6-(4-Hydroxy-3-(4-(4-(trifluoromethyl)phenyl)piperazin-1-yl)but-1-en-1-yl)-3,4-dihydroquinolin-2(1H)-one], the “nH (slope factor of the inhibition curve)” value (pH 6.9) is given as −0.67 and the “nH (slope factor of the inhibition curve)” value (pH 7.6) was −1.09.
Turning to `O=C1CCc2cc(/C=C/[C@@H](O)CN3CCN(c4ccc(C(F)(F)F)cn4)CC3)ccc2N1` [Compound 45, (R,E)-6-(3-Hydroxy-4-(4-(5-(trifluoromethyl)pyridin-2-yl)piperazin-1-yl)but-1-en-1-yl)-3,4-dihydroquinolin-2(1H)-one], the “nH (slope factor of the inhibition curve)” value is −0.80 (pH 6.9) and −0.80 (pH 7.6).
